Results taken from US8158643B2, “Substituted diaza-spiro-pyridinone derivatives for use in MCH-1 mediated diseases” (Janssen Pharmaceutica N.V., priority 2006, dated 2012).

Key:
human MCH-1 receptor = biological target: T1, human MCH-1 receptor (Homo sapiens, UniProt Q99705); experiment: Ca2+ mobilization experiment for the MCH-1 receptor (FLIPR), inhibition of MCH-induced Ca2+ response; type: cell-based; conditions: CHO cells stably expressing human MCH-1 receptor, submaximal MCH concentration, read-out: MCH-1 pIC50 (converted)
T1 construct: expressed in transfected cells
Experimental: The interaction of the compounds of Formula (I) with MCH-1 receptors was assessed in in vitro transient calcium (Ca^2+) mobilization assays in the fluorimetric imaging plate reader (FLIPR) format (Sullivan et al. 1999, Methods Mol Biol 114:125-133). In general, the natural agonist (MCH) is incubated with cells expressing the MCH-1 receptor, which elicits a concentration-dependent transient mobilization of Ca^2+ from internal stores. The interaction of the test compounds with the receptor is assessed in competition experiments. Various concentrations of the test compound are added to the incubation mixture containing the receptor-expressing cells and a submaximal concentration of MCH. The test compound in proportion to its antagonist potency and its concentration inhibits MCH-induced Ca^2+ mobilization.
Cell culture and membrane preparation. Chinese Hamster ovary cells (CHO) stably expressing the human MCH-1 receptor are grown in a 1:1 mixture of Dulbecco's Modified Eagles Medium (DMEM) and HAM's F12 medium including Glutamax™ (Invitrogen), supplemented with 10% heat-inactivated fetal bovine serum and 400 μg/ml geneticin.
Ca^2+ mobilization experiment for the MCH-1 receptor. Twenty-four hours before the experiment, MCH-1 receptor-expressing CHO cells are seeded in 20 μl (5,000 cells per well) into 384-well black wall, clear bottom microtiter plates (Costar). On the day of the experiment, 20 μl per well calcium assay kit containing 10 mM probenicide (Molecular Devices) is added. Cells are loaded for 90 min at 37° C. and 5% CO2 in a cell culture incubator. After loading, 20 μl of serial dilutions of the test compound are added and cells are further incubated for 20 min at room temperature in the dark. After 20 min, 20 μl of a submaximal MCH concentration is added and changes in intracellular calcium are recorded directly in a FLIPR III apparatus (Molecular devices).
Data analysis and results. Data from assays in the presence of compound were calculated as a percentage of total Ca^2+-responses measured in the absence of test compound. Inhibition curves, plotting percent of total Ca^2+-responses versus the log value of the concentration of the test compound, were automatically generated, and sigmoidal inhibition curves were fitted using non-linear regression. The pIC50 values of test compounds were derived from individual curves.

HERG potassium channel = biological target: T2, HERG potassium channel (Homo sapiens, UniProt Q12809); experiment: hERG-mediated K+ tail current, automated whole-cell patch clamp (PatchXpress 7000A) in HEK293 cells stably transfected with HERG; type: cell-based; conditions: measured after 5 minutes of drug application
T2 construct: expressed in transfected cells
Description: To determine the extent of block the residual current was compared with vehicle pre-treatment.

T1 sequence (Q99705 whole entry): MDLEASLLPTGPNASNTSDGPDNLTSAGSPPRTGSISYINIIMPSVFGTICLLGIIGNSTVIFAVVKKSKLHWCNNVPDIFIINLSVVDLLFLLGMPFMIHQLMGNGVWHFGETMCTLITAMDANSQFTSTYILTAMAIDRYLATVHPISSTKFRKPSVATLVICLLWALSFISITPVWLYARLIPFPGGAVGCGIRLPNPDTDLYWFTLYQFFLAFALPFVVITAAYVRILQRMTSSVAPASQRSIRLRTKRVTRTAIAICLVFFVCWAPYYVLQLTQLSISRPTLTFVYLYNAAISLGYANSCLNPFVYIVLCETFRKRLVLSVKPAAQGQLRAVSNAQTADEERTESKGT
T2 sequence (Q12809 whole entry): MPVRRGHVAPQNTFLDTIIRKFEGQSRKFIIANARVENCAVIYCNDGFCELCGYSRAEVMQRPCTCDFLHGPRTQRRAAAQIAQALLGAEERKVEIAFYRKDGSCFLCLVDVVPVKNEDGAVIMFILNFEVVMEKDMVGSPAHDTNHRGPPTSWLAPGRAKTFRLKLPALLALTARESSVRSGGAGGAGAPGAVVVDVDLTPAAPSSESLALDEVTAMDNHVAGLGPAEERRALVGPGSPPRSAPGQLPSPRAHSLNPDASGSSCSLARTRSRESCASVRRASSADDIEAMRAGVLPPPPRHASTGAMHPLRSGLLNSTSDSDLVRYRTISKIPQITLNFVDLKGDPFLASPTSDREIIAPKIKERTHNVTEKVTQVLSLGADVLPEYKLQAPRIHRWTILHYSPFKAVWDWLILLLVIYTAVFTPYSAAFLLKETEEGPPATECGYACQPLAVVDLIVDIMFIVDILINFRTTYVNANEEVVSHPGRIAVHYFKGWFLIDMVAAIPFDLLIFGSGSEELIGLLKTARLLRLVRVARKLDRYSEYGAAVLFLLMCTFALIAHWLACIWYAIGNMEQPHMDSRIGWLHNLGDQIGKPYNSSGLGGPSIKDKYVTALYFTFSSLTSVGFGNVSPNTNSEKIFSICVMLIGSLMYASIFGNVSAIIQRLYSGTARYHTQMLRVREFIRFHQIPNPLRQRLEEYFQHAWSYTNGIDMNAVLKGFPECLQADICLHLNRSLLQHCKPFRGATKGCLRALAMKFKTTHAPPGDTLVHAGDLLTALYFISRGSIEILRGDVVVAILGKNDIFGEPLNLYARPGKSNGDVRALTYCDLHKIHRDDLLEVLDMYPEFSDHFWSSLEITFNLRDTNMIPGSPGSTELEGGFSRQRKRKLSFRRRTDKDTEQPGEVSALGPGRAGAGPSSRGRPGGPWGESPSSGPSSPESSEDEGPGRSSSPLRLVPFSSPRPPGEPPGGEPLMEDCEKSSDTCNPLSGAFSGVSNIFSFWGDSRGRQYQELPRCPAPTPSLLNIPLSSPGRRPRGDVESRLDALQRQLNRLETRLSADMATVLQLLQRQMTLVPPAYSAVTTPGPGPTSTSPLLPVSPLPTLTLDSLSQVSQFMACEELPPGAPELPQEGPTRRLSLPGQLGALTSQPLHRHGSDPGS

IC50 (human MCH-1 receptor) [nM]	melting point [°C]	Compound	hERG-reduction (%) at 3 μM (HERG potassium channel) [%]
79.4	–	O=c1cc(OCc2ccccc2)ccn1-c1ccc(N2CCC3(CC2)CNC3)cc1 [Compound 1-1]	–
50.1	141.5	O=c1cc(OCc2ccccc2)ccn1-c1ccc(N2CCC3(CCCNC3)CC2)cc1 [Compound 1-2]	–
126	–	O=c1cc(OCc2ccccc2)ccn1-c1ccc(N2CCC3(CC2)CNCCO3)cc1 [Compound 1-3]	–
31.6	–	O=c1cc(OCc2ccccc2)ccn1-c1ccc(N2CCCC3(CCNC3)C2)cc1 (stereo not drawn) [Compound 1-4]	–
31.6	203.2	O=c1cc(OCc2ccccc2)ccn1-c1ccc(N2CC3(CCNCC3)C2)cc1 [Compound 1-5]	–
25.1	–	O=c1cc(OCc2ccccc2)ccn1-c1ccc(N2CCC3(CCCNC3)C2)cc1 (stereo not drawn) [Compound 1-6]	–
63.1	236.3	O=c1cc(OCc2ccccc2)ccn1-c1ccc(N2CCC3(CCNCC3)C2)cc1 [Compound 1-7]	−1.8
63.1	–	CCN1CCC2(CC1)CN(c1ccc(-n3ccc(OCc4ccccc4)cc3=O)cc1)C2 [Compound 1-8]	–
100	276.5	O=c1cc(OCc2ccccc2)ccn1-c1ccc(N2CC3(CCN(C4CC4)CC3)C2)cc1 [Compound 1-9]	–
79.4	–	O=C1CC2(CCNCC2)CN1c1ccc(-n2ccc(OCc3ccccc3)cc2=O)cc1 [Compound 1-10]	–
50.1	–	O=C1N(c2ccc(-n3ccc(OCc4ccccc4)cc3=O)cc2)CC12CCNCC2 [Compound 1-11]	–
25.1	231	O=c1cc(OCc2ccccc2)ccn1-c1ccc(N2CC3(CCNCC3)C2)cc1 [Compound 1-12]	0.7
31.6	–	CN1CCC2(CC1)CCN(c1ccc(-n3ccc(OCc4ccccc4)cc3=O)cc1)C2 [Compound 1-14]	–
25.1	164.6	Cc1cc(-n2ccc(OCc3ccccc3)cc2=O)ccc1N1CC2(CCNCC2)C1 [Compound 2-1]	15.6
39.8	–	COc1cc(-n2ccc(OCc3ccccc3)cc2=O)ccc1N1CC2(CCNCC2)C1 [Compound 2-2]	–
25.1	–	O=c1cc(OCc2ccccc2)ccn1-c1ccc(N2CC3(CCNCC3)C2)c(Cl)c1 [Compound 2-3]	–
31.6	–	CN1CCC2(CC1)CN(c1ccc(-n3ccc(OCc4ccccc4)cc3=O)cc1Cl)C2 [Compound 2-4]	–
63.1	–	O=c1cc(/C=C/c2ccccc2)ccn1-c1ccc(N2CC3(CCNCC3)C2)cc1 [Compound 3-1]	–
39.8	–	O=c1cc(OCc2ccc(F)cc2)ccn1-c1ccc(N2CC3(CCNCC3)C2)cc1 [Compound 3-2]	–
501	292.7	O=c1cc(COc2ccccc2)ccn1-c1ccc(N2CC3(CCNCC3)C2)cc1 [Compound 3-3]	–
